Laboratory results published in patent US5475029A, “Farnesyl compounds as cholesterol lowering agents” (The Board of Trustees of the Leland Stanford Junior …, priority 1993, dated 1995).

What was measured:
[1] = tested on: cholesterol biosynthetic pathway; assay: TLC distribution of [3H]acetate-derived non-saponifiable lipids (site of metabolic block); format: cell-based; set-up: radioactivity in the cell-derived fraction co-migrating with lanosterol / radioactivity in the cell-derived fraction co-migrating with squalene / radioactivity in the cell-derived fraction co-migrating with cholesterol / remaining radioactivity in the cell-derived fraction scattered throughout the rest of the TLC lane: concentration or dose not given beside the values
Description: Lipid Saponification and Extraction Procedure Saponification and extraction of lipids from cell and media samples was performed as previously described in Bradfute, et al. (1992) J.B.C. 267:18308-18314.
(§1) Thin Layer Chromatography--TLC was performed using Analtech 250 μm silica gel G plates with a hexanes/diethyl ether (1:1) solvent system. Lipid standards were visualized by iodine staining. Bands were scraped from the plate and their radioactivity was measured.
(§2) Quantification of Radioactivity--Samples were suspended in 4 ml of scintillation fluid (Cytoscint from ICN). The radioactivity of the samples was measured using a Beckman LS-7500 scintillation counter.
To determine tile site of tile metabolic block caused by farnesyl acetate and ethyl farnesyl ether, the non-saponifiable lipids from cells grown in the presence of the farnesyl compounds were examined for the accumulation of intermediates in the cholesterol biosynthetic pathway. The cells were only labeled for 1 hour and only treated with the farnesyl compounds during the labeling period; so that any intermediates which accumulated would be as a result of the inhibitory effects of the farnesol compounds and not subsequent regulatory effects on HMG-CoA reductase. CHO-HMGal cells were incubated with [^3 H]acetate and either farnesyl acetate, ethyl farnesyl ether, or no additive. The non-saponifiable lipids were isolated from both the cell, and the medium and separated by TLC.

cholesterol biosynthesis = assay: [3H]acetate incorporation into cholesterol in CHO-HMGal cells; format: cell-based
Description: as §1, §2
Subsequently, the cells were labeled for 1,2, and 4 hours with [^3 H]acetate and harvested. The non-saponifiable lipid fraction from each cell type was extracted and separated by TLC. The radioactivity that co-migrated with cholesterol was measured and normalized for the amount of cellular protein.
Farnesyl acetate and ethyl farnesyl ether were only present during the labeling period so that any reduction in incorporation into cholesterol would be the result of inhibition and not a down regulation in HMG-CoA reductase.

HMGal = HMGal synthesis rate ([35S]methionine incorporation); format: cell-based; settings: 10 μg/ml
Description: Measurement of HMGal and HMG-CoA Reductase Synthesis Rates Cells plated into 60×15 mm dishes were grown in 5% LPS MEM with 0.25 mg/ml active geneticin for 24 hours. These cells were washed with PBS and grown for 24 hours in 5% LPS MEM supplemented with 0.25 mg/ml active geneticin, 10 μM compactin and 0.1 mM mevalonate. After 24 hours, the medium was removed, the cells were washed with PBS and the medium was replaced with methionine-free MEM supplemented with 5% LPS, 250 μg/ml of active geneticin, 10 μM compactin, and 0.1 mM mevalonate. In addition, 20 mM mevalonate or 10 μg/ml farnesyl acetate was included in those plates previously treated with these compounds. […] Cells were washed, lysed and the HMGal and HMG-CoA reductase proteins were immunoprecipitated, subjected to SDS-PAGE and quantified. […]
Farnesyl compounds reduce translation and stimulate degradation of HMG-CoA reductase and HMGal A reduction in HMGal specific activity triggered by the farnesyl compounds could have been the result of a decrease in HMGal synthesis, an increase in HMGal degradation, or a combination of changes in both the synthesis and degradation rates. In order to test whether the farnesyl compounds impact synthesis, the rates of HMGal, HMG-CoA reductase, and total cellular protein synthesis were measured by [^35 S]methionine incorporation in the presence and absence of 10 μg/ml farnesyl acetate.

squalene synthase = assay: Squalene synthase assay (cell lysate); format: biochemical; settings: 4 nM to 0.2 mM
Description: Squalene Synthase Assay--The cell lysate was prepared immediately prior to running the assay. Cells were washed three times with PBS, once with a 0.1M potassium phosphate buffer (pH 7.4) containing 5 mM MgCl2 and 5 mM CHAPS, and once with a 0.01M potassium phosphate buffer (pH 7.4) containing 0.5 mM MgCl2 and 0.5 mM CHAPS. Cells were scraped with a rubber policeman in approximately 0.5 ml of the final wash buffer and dounce homogenized with 20 strokes, while on ice. An aliquot of cell lysate was examined with a light microscope to ensure that essentially all cells in the sample were lysed. An additional aliquot of cell lysate was saved for protein determination. […] The squalene was isolated by TLC and the radioactivity of the squalene bands was measured as previously described. […]
Since both farnesyl compounds have a structural similarity to farnesyl pyrophosphate, the substrate for squalene synthase, and some of the farnesyl compounds that have been tested function as a competitive inhibitor of squalene synthase, the effects of farnesyl acetate on in vitro squalene synthase activity was measured. As a positive control, squalene synthase activity was also measured in tile presence of zaragozic acid A, a potent competitive inhibitor of the enzyme. […]

[2] = 1 hour labeling with [3H]acetate, compound only during labeling

SMILES: CC(=O)OCC=C(C)CCC=C(C)CCC=C(C)C [farnesyl acetate]
- radioactivity in the cell-derived fraction co-migrating with cholesterol [1, 2]: 4%
- radioactivity in the cell-derived fraction co-migrating with lanosterol [1, 2]: 74%
- radioactivity in the cell-derived fraction co-migrating with squalene [1, 2]: 9%
- remaining radioactivity in the cell-derived fraction scattered throughout the rest of the TLC lane [1, 2]: 13%
- total non-saponifiable radioactivity found in the medium ([1]; untreated 6%): 12%
- total non-saponifiable radioactivity found in the cells ([1]; untreated 94%): 88%
- increase in media-derived material co-migrating with farnesol ([1]; versus untreated sample): ~3 fold
- reduction in [3H]acetate incorporation into cholesterol (cholesterol biosynthesis; 24 hours pretreatment, then labeled 1, 2 and 4 hours, CHO-HMGal cells): 80%
- reduction in [3H]acetate incorporation into cholesterol (cholesterol biosynthesis; compound present only during the labeling period, no pretreatment): 89%
- reduction in the rate of HMGal synthesis (HMGal): 80%
- effect on in vitro squalene synthase activity (squalene synthase): negligible effect
